This note sets out measurements from publication PMC4351682, “Formononetin inhibits enterovirus 71 replication by regulating COX- 2/PGE2 expression” (Virology Journal, 2015).

In assay [1] the test system is CVB2 (strain Ohio-1). Briefly: CPE inhibition assay for anti-CVBs, CVB2 in Vero cells. It counts as cell-based, coxsackievirus B2. The settings on record: Enterovirus B, CVB2, 100 TCID50, Vero cells. The protocol:
(§1) The anti-virus activity of formononetin on CVBs was also assayed by CPE method. Briefly, cells (3 × 10^4 cells/well) were plated into 96-well culture plates for incubation of 24 h. The medium was removed and cells were infected with 100 TCID50 of CVB2, CVB6 or CVB3. Then, various concentrations of formononetin were supplemented for incubation of another 48 h. The IC50 was determined by Reed and Muench method. The SI was calculated as the ratio of TC50/IC50 [19].

Assay [2] relates to CVB6 (strain Schmitt). Nature of the assay: CPE inhibition assay for anti-CVBs, CVB6 in Vero cells. The settings on record: Enterovirus B, CVB6, 100 TCID50, Vero cells. It counts as cell-based, coxsackievirus B6. The method, then:
as §1

Assay [3] has as its system EV71. Briefly: Antiviral activity against EV71, comparison of pirodavir and pleconaril (data not shown). The assay is classed as cell-based, enterovirus 71.

As usually defined, the IC50 is the concentration that inhibits the measured activity by half. Read a low IC50 as greater potency in that assay. Consider `COc1ccc(-c2coc3cc(O)ccc3c2=O)cc1` [Formononetin], for which the figures for the half-maximal inhibitory concentration (IC50) in assay [1] and in assay [2] were 9.56 ± 2.23 µM and 5.33 ± 1.48 µM, respectively. Turning to `CCOC(=O)c1ccc(OCCC2CCN(c3ccc(C)nn3)CC2)cc1` [Pirodavir, reference compound], the “Antiviral activity against EV71 compared with pleconaril” value in assay [3] is listed as “better than pleconaril”.
